For data set [1], the system named is nucleic acid synthesis. The following applies: background statement; cited from earlier work.
The conditions of data set [2]: clinical tests conducted in the United States; cited from earlier work.
Data set [3] relates to P388 murine leukemia cells. Description: Antitumour effect against P388 murine leukemia in male CDF-1 mice (median survival time). Type of data set: in vivo, mouse. The following applies: for Mice Survived for 40 days: intraperitoneal on day 1, CDF-1 mice; for T/C (median survival time of treated group against control group): intraperitoneal on day 1, P388 cells inoculated on day 0, CDF-1 mice. The procedure: P388 murine leukemia cells (1×10^6 /mouse) were inoculated into male CDF-1 mice (5-6 mice per group, age 7-10 weeks, weighing 21-34 g) on day 0, and the test compound was administered intraperitoneally on day 1.
The test compound were dissolved in water or physiological saline after having been converted into sodium salts, or suspended into a physiological saline containing 0.9% benzyl alcohol, 0.4% Tween 80, or 0.5% CMC.
The antitumour effect was evaluated by the percentage of the median survival time of the treated group (T) against that of the control group (C).

The subject of data set [4] is P388 mouse leukemia cells. Description: Growth inhibition of P388 mouse leukemia cells, cell count after 72 hours. It is filed as cell-based. The procedure: A test compound was added to a suspension containing P388 mouse leukemia cells (2×10^4 /ml) and the cells were cultured in 5% CO2 at […]. After 72 hours, the number of the cells were counted to determine the IC50 value.

Data set [5] concerns Mouse leukemia P388 cells. The experiment in a line: MTT assay on mouse leukemia P388 cells, 72 hours. Type of data set: cell-based. How it is done: Mouse leukemia P388 cells, harvested from a pre-culture medium, were suspended in a fresh PRMI 1640 medium supplemented with 10% FCS (GIBCO) and inoculated in a volume of 0.05 ml at 2.5×10^3/ml cells per well in 96-well microplates. Following 24 hour incubation at 37° C. under 5% CO2 and 100 relative humidity, 0.05 ml of the culture medium or a culture medium containing a test compound was dispersed into each well. The cells in the medium were then incubated for 72 hours. At 4 hours before the end of incubation, 0.01 ml of MTT [3-(4,5-dimethylthiazol-2-yl)-2,5-diphenyl-2H-tetrazolium bromide] solution dissolved in phosphate-buffer saline at a concentration of 5 mg/ml was added. After 4 hour exposure with the MTT solution, the reaction was stopped by the addition of 0.2 ml/well of 1M HCl:i-propanol (1:24) followed by thorough mixing. The optical density of the solution was measured by EAR 400 (SLT Labinstruments, Austria) at 540 nm.
(In general: Tetrazolium assays rely on reduction of a dye to a coloured formazan, in cell work by metabolically active cells.)

Setting [6] is: repeated in the table of Experimental Example 3, footnote *, read-out: IC50 (in parentheses; value obtained by determination in Experimental Example 2).

Converted amounts (≈) assume the structure as drawn. Where two headings read alike, the source gives them in different places.

`CC[C@@]1(O)C(=O)OCc2c1cc1n(c2=O)Cc2cc3ccccc3nc2-1` [Camptothecin]: in data set [1], the antitumour activity result is on record as “known to exhibit an antitumour activity because of its capability of inhibiting nucleic acid synthesis”. In addition, the “safety in clinical tests” value in data set [2] is “found to have a problem in view of safety”.
Usually IC50 stands for the concentration that inhibits the measured activity by half. Consider `CCC1(O)C(=O)OCc2c1cc1n(c2=O)Cc2c-1nc1ccc(O)c3c1c2CCC3` (stereo not shown) [Example 1, 9-ethyl-2,3-dihydro-4,9-dihydroxy-1H,12H-benzo[de]pyrano[3',4': 6,7]indolizino[1,2-b]quinoline-10,13(9H,15H)-dione], for which, in data set [3] (240 mg/kg), the “Mice Survived for 40 days” value is 5 Out of 6. In addition, in data set [3] (240 mg/kg), the “T/C (median survival time of treated group against control group)” value was more than 392%. In addition, the concentration for half-maximal inhibition (IC50) was 1.47 ng/mL (≈ 3.63 nM) in data set [4] (cell count, read-out: IC50); 1.47 ng/mL (≈ 3.63 nM) in data set [4] (setting [6]); 3.8 ng/mL (≈ 9.4 nM) in data set [5].
As to `CCC1(O)C(=O)OCc2c1cc1n(c2=O)Cc2c-1nc1ccc(C)c3c1c2CCO3` (stereo not shown) [Example 2, 9-ethyl-1,2-dihydro-9-hydroxy-4-methyl-12H-pyrano[4,3,2-de]pyrano[3',4':6,7]indolizino[1,2-b]quinoline-10,13(9H,15H)-dione], in data set [3] (480 mg/kg), the “Mice Survived for 40 days” value is 4 Out of 6 and the “T/C (median survival time of treated group against control group)” value is recorded as more than 376%. Besides, the IC50 in data set [4] (cell count, read-out: IC50) was 0.81 ng/mL (≈ 2 nM).
The like results for `CCC1(O)C(=O)OCc2c1cc1n(c2=O)Cc2c-1nc1ccc(C)c3c1c2CCS3` (stereo not shown) [Example 3, 9-ethyl-1,2-dihydro-9-hydroxy-4-methyl-12H-thiino[4,3,2-de]pyrano[3',4':6,7]indolizino[1,2-b]quinoline-10,13(9H,15H)-dione] were, in that order, 5 Out of 6, more than 400% and 4.32 ng/mL (≈ 10.3 nM).
Take `CCC1(O)C(=O)OCc2c1cc1n(c2=O)Cc2c-1nc1ccc(C)c3c1c2CCN3` (stereo not shown) [Example 4, 9-ethyl-1,2-dihydro-9-hydroxy-4-methyl-3H,12H-pyrano[3',4': 6,7]indolizino[1,2-c]benzo[ij][2,7]naphthilidine-10,13(9H,15H)-dione]: the IC50 in data set [4] (cell count, read-out: IC50) was determined as 3.73 ng/mL (≈ 9.25 nM); in data set [4] (setting [6]) it was 3.73 ng/mL (≈ 9.25 nM); in data set [5], 4.46 ng/mL (≈ 11.1 nM).
In the case of `CCC1(O)C(=O)OCc2c1cc1n(c2=O)Cc2c-1nc1ccc(Cl)c3c1c2CCC3` (stereo not shown) [Example 5, 4-chloro-9-ethyl-2,3-dihydro-9-hydroxy-1H,12H-benzo[de]pyrano[3',4':6,7]indolizino[1,2-b]quinoline-10,13(9H,15H)-dione], in data set [4] (cell count, read-out: IC50), the half-inhibitory concentration (IC50) was 3.3 ng/mL (≈ 7.8 nM).
The same measure, in the same setting: to `CCC1(O)C(=O)OCc2c1cc1n(c2=O)Cc2c-1nc1ccc(O)c3c1c2CC3` (stereo not shown) [Example 8, 8-ethyl-1,2-dihydro-3,8-dihydroxy-11H-cyclopenta[de]pyrano[3',4':6,7]indolizino[1,2-b]quinoline-9,12(8H,14H)-dione] belongs 3.03 ng/mL (≈ 7.76 nM).
For the molecule `CCC1(O)C(=O)OCc2c1cc1n(c2=O)Cc2c-1nc1ccc(O)c3c1c2CCO3` (stereo not shown) [Example 11, 9-ethyl-1,2-dihydro-4,9-dihydroxy-12H-pyrano[4,3,2-de]pyrano[3',4':6,7]indolizino[1,2-b]quinoline-10,13(9H,15H)-dione], the IC50 in data set [4] (cell count, read-out: IC50) was found to be 2.64 ng/mL (≈ 6.5 nM); in data set [4] (setting [6]), 2.64 ng/mL (≈ 6.5 nM); in data set [5], 4.05 ng/mL (≈ 9.97 nM).
As to `CCC1(O)C(=O)OCc2c1cc1n(c2=O)Cc2c-1nc1ccc(C#N)c3c1c2CCS3` (stereo not shown) [Example 16, 4-cyano-1,2-dihydro-9-ethyl-9-hydroxy-12H-thiino[4,3,2-de]pyrano[3',4':6,7]indolizino[1,2-b]quinoline-10,13(9H,15H)dione], in data set [3] (60 mg/kg), the “Mice Survived for 40 days” value is on record as 4 Out of 6 and the “T/C (median survival time of treated group against control group)” value is listed as 443%. Besides, in data set [4] (cell count, read-out: IC50), the IC50 was found to be 7.23 ng/mL (≈ 16.8 nM).
In the case of `CCC1(O)C(=O)OCc2c1cc1n(c2=O)Cc2c-1nc1ccc(N)c3c1c2CCS3` (stereo not shown) [Example 20, 4-amino-1,2-dihydro-9-ethyl-9-hydroxy-12H-thiino[4,3,2,-de]pyrano[3',4': 6,7]indolizino [1,2-b]quinoline-10,13(9H,15H)-dione], the IC50 in data set [4] (cell count, read-out: IC50) came to 0.92 ng/mL (≈ 2.18 nM).
For `CCC1(O)C(=O)OCc2c1cc1n(c2=O)Cc2c-1nc1cccc3c1c2CCS3` (stereo not shown) [Example 21, 1,2-dihydro-9-ethyl-9-hydroxy-12H-thiino[4,3,2,-de]pyrano[3',4': 6,7]indolizino[1,2-b]quinoline-10,13(9H,15H)-dione], the IC50 in data set [4] (cell count, read-out: IC50) was determined as 3.41 ng/mL (≈ 8.39 nM).
For `CC[C@@]1(O)C(=O)OCc2c1cc1n(c2=O)Cc2c-1nc1ccc(CN)c3c1c2CCS3.Cl` [Example 31, (s)-4-aminomethyl-9-ethyl-1,2-dihydro-9-hydroxy-12H-thiino[4,3,2-de]pyrano[3',4':6,7]indolizino[1,2-b]quinoline-10,13(9H,15H)-dione hydrochloride], inhibition in data set [5] was half-maximal at 3.66 ng/mL (IC50).
`CC[C@@]1(O)C(=O)OCc2c1cc1n(c2=O)Cc2c-1nc1ccc(CN)c3c1c2CCC3.Cl` [Example 33, (s)-4-aminomethyl-9-ethyl-2,3-dihydro-9-hydroxy-1H,12H-benzo[de]pyrano[3',4':6,7]indolizino[1,2-b]quinoline-10,13(9H,15H)-dione hydrochloride]: the midpoint of inhibition in data set [5], the IC50, lay at 5.52 ng/mL.
In data set [5], `CC[C@@]1(O)C(=O)OCc2c1cc1n(c2=O)Cc2c-1nc1ccc(CNC)c3c1c2CCS3.Cl` [Example 36, (s)-9-ethyl-1,2-dihydro-9-hydroxy-4-methylaminomethyl-12H-thiino[4,3,2-de]pyrano[3',4':6,7]indolizino[1,2-b]quinoline-10,13(9H,15H)-dione hydrochloride] registered an IC50 of 12.2 ng/mL.
On the same count and under the same terms, the result for `CC[C@@]1(O)C(=O)OCc2c1cc1n(c2=O)Cc2c-1nc1ccc(CN)c3c1c2CCO3.Cl` [Example 38, (s)-4-aminomethyl-9-ethyl-1,2-dihydro-9-hydroxy-12H-pyrano[4,3,2-de]pyrano[3',4':6,7]indolizino[1,2-b]quinoline-10,13(9H,15H)-dione hydrochloride] reads 6.36 ng/mL; that for `CCC1(O)C(=O)OCc2c1cc1n(c2=O)Cc2c-1nc1ccc(N)c3c1c2CCC3` (stereo not shown) [Example 39, 4-amino-9-ethyl-2,3-dihydro-9-hydroxy-1H,12H-benzo[de]pyrano [3',3':6,7]indolizino[1,2-b]quinoline-10,13(9H,15H)-dione], 2.97 ng/mL (≈ 7.36 nM).
